The source of these data is PubChem BioAssay (NCI).

SMILES strings stand for the structures.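 Protocol summary: plate cells (96-well), add compound at 5 concentrations, incubate 48 h, interpolate endpoints linearly. GI50 = concentration required for 50% inhibition of growth. TGI is the concentration that stops growth completely.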

Assay in all cases: DTP human tumour cell line panel, 48 h
Assay [1] deals with HS 578T breast.
In assay [2] the test system is MDA-MB-231 breast.
Assay [3] concerns NCI-H460 lung.
Assay [4] relates to NCI-H522 lung.
Assay [5] relates to NCI/ADR-RES ovarian.
Assay [6] has as its system OVCAR-4 ovarian.
Assay [7] relates to SK-MEL-5 melanoma.
Assay [8] concerns MOLT-4 leukemia.
The test system of assay [9] is SNB-75 CNS.
The test system of assay [10] is A498 renal.

In the case of `O=C(NNc1ccc(F)cc1)C1CCC(CNS(=O)(=O)c2ccc(Cl)c(Cl)c2)CC1` (stereo not drawn), the GI50 (as a rule, the concentration giving 50% growth inhibition) in [1] was 10.5 µM; in assay [2], 3.17 µM; in assay [3] it was 3.18 µM; in [4], 22.8 µM; in [5], 8.79 µM; in [6], 9.02 µM. Moreover, the GI50 in assay [7] was 10.8 µM. Also, the TGI (usually the concentration at which net growth stops) in assay [1] was 42.4 µM; in [2], 25.4 µM; in assay [3], over 50 µM; in assay [4] it was over 50 µM; in assay [5] it was 31.5 µM; in assay [6], 47 µM. For the same compound, in assay [7], the TGI was 33.1 µM.

For the compound `COc1cc(/C=C2\Oc3cc(OCCCN4CCCC4)ccc3C2=O)cc(OC)c1`, the GI50 was 5.15 µM in assay [1]; 3.28 µM in assay [2]; 2.59 µM in assay [8]; 3.43 µM in assay [3]; 14.2 µM in assay [4]; 6.17 µM in assay [5]. In addition, the GI50 was 7.16 µM in assay [6], 2 µM in [7] and 11 µM in assay [9]. Also, the TGI in [1] was found to be 25.6 µM; in [2] it was 11.1 µM; in [8], 9.19 µM; in assay [3], 12.3 µM; in [4] it was 32.7 µM; in [5] it was 21.6 µM. The TGI in assay [6] was found to be 19.8 µM; in [7] it was 4.6 µM; in assay [9], 22.9 µM.

On to `CC(=O)[CH-]C(=O)c1ccccc1.CC(=O)[CH-]C(=O)c1ccccc1.CC[C@H](/C=C/C(C)[C@H]1CCC2[C@@H]3CC=C4C[C@@H]([O-])CC[C@]4(C)C3CC[C@@]21C)C(C)C.CC[O-].[Ti+4]` (stereo partly drawn), for which the GI50 was over 100 µM in assay [10]; over 100 µM in assay [8]; over 100 µM in [3]; 44.8 µM in assay [4]; over 100 µM in assay [6]; over 100 µM in assay [7]. Also, the GI50 in assay [9] is 22.4 µM. Moreover, the TGI in assay [10], in [8], in [3], in assay [4], in assay [6] and in [7] was over 100 µM in each case. The compound also displayed a TGI in [9] of over 100 µM.

Consider `CSCC[C@H](NC(=O)[C@H](CC(C)C)NC(=O)[C@@H](Cc1ccccc1)NC(=O)CNC(=O)[C@@H](NC(=O)[C@H](C)NC(=O)[C@H](Cc1c[nH]c2ccccc12)NC(=O)[C@H](CCC(N)=O)NC(=O)[C@H](N)CC(N)=O)C(C)C)C(N)=O`, for which the TGI in assay [10], in assay [1], in assay [2], in assay [8], in [3] and in [5] was over 12.5 µM throughout. The TGI in [6], in [7] and in assay [9] was over 12.5 µM throughout.

Turning to `COc1cccc(NC(=O)C(C)(C)C)c1SSc1c(NC(=O)C(C)(C)C)cccc1OC`, the concentration for total growth inhibition (TGI) in assay [10] is over 100 µM; in assay [8], over 70.6 µM; in assay [3] it was over 100 µM; in [4], 27.2 µM; in assay [6], over 56.3 µM; in assay [7], over 100 µM. Besides, in assay [9], the concentration for total growth inhibition (TGI) was over 74.4 µM.

For the compound `O=S1(=O)NC2CCC3NS(=O)(=O)NC4CCC(N1)N4S(=O)(=O)N23` (stereo not drawn), the TGI in [10], in [1], in assay [2], in assay [3], in assay [4] and in assay [5] was over 100 µM each time. In addition, the TGI in assay [6], in assay [7] and in [9] was over 100 µM each time.

With `Cn1cc(-c2csc(-c3cn(CCCCN4CCCCC4)c4ccc(F)cc34)n2)c2cccnc21`, the GI50 in [10] was 1.6 µM; in [1], 12.4 µM; in assay [3], 1.9 µM; in [6], 1.59 µM. Moreover, the TGI in [10] came to 3.28 µM; in assay [1], 53.8 µM; in assay [3], 3.52 µM; in [6], 2.94 µM.

Regarding `CSc1ccc(OCC2OC2O)cc1` (stereo not drawn), the TGI in assay [10] is over 100 µM; in assay [8], over 75.5 µM; in assay [3], over 100 µM; in [4], over 81.6 µM; in assay [6], over 100 µM; in assay [7], 35.6 µM. For the same compound, in assay [9], the total growth inhibition concentration (TGI) is over 100 µM.

Turning to `O=C(N/C(=C\c1ccc(/C=C(\NC(=O)c2ccccc2)c2nc3cc(Cl)ccc3[nH]2)cc1)c1nc2cc(Cl)ccc2[nH]1)c1ccccc1`, the TGI in assay [10] was over 100 µM; in assay [8], 39.8 µM; in assay [3] it was over 100 µM; in assay [4], 53.8 µM; in assay [6], 87 µM; in [7], 47.8 µM. The compound also had a concentration for total growth inhibition (TGI) in [9] of over 100 µM.

`Cn1c(=O)c2ccc(-c3ccc(Br)cc3)nc2n(C)c1=O`: the TGI in assay [10], in [8], in assay [3], in [4], in assay [6] and in assay [7] was over 100 µM each time. For the same compound, the concentration for total growth inhibition (TGI) in assay [9] amounted to 73.5 µM.

With `Cc1cc(Cl)ccc1NC(=O)CCCC(=O)C1CCC/C1=N\NC(=O)CC#N` (stereo not drawn), the TGI in [10], in assay [8], in [3], in [4], in assay [6] and in [7] was over 100 µM in each case. Moreover, the total growth inhibition concentration (TGI) in [9] is over 100 µM.

In the case of `COc1ccc2c(c1)[n+]([O-])c(-c1ccc(Br)cc1)c(N)[n+]2[O-]`, the TGI in assay [10] was over 100 µM; in assay [8], over 100 µM; in [3] it was over 100 µM; in [4], 29.7 µM; in [6], over 100 µM; in [7] it was 36.5 µM. In assay [9], the TGI was over 100 µM.

For `Nc1ccccc1NC(=O)c1ccc(CN2CCC/C(=C\c3ccccn3)C2=O)cc1`, the GI50 in assay [10] was 1.09 µM; in assay [2] it was 4.04 µM; in [8], 1.26 µM; in assay [3] it was 1.65 µM; in assay [4], 0.51 µM; in assay [5], 1.33 µM. Further, the GI50 in assay [6] is 2.66 µM; in assay [7], 1.46 µM; in [9], 1.06 µM. Also, the TGI in [10] is 3.47 µM; in assay [2], over 100 µM; in [8], over 100 µM; in assay [3] it was over 100 µM; in [4], 3.76 µM; in [5], over 100 µM. Besides, the TGI is over 100 µM in assay [6], 3.79 µM in assay [7] and 6.05 µM in assay [9].

With `O=[N+]([O-])c1ccc(Sc2nc(Cl)nc(NC3CCCC3)n2)cc1`, the GI50 in [10], in assay [1], in assay [2], in assay [8], in [3] and in assay [5] was over 10 µM throughout. Further, the GI50 in assay [6] was over 10 µM; in assay [7] it was 5.32 µM; in assay [9], over 10 µM. For the same compound, the TGI in assay [10], in assay [1], in [2], in assay [8], in [3] and in assay [5] was over 10 µM each time. In addition, the TGI in assay [6], in assay [7] and in [9] was over 10 µM throughout.

For `CO[C@]12C=C/C(=C(/C(=O)OCc3cccnc3)C(=O)CCCCCCCC[C@@]3(OC)C=C/C(=C(/C(=O)OCc4cccnc4)C(=O)CCCCCCCC1)O3)O2`, the GI50 in [10] is 2.04 µM; in assay [1], 2.08 µM; in assay [2] it was 2.25 µM; in assay [3], 1.27 µM; in assay [4] it was 1.05 µM; in assay [5] it was 1.56 µM. For the same compound, the GI50 in [7] is 0.856 µM; in assay [9] it was 1.18 µM. The TGI was 6.57 µM in assay [10]; over 50 µM in [1]; over 50 µM in assay [2]; 3.16 µM in [3]; 2.85 µM in assay [4]; over 50 µM in [5]. Besides, the TGI in [7] stood at 1.64 µM; in assay [9], 4.05 µM.

Consider `O=C(/C=C/c1ccccc1Cl)c1cccc2ccccc12`, for which the TGI was 27.5 µM in assay [10]; 5.59 µM in assay [8]; 19.7 µM in assay [3]; 18.6 µM in [4]; 16.6 µM in assay [6]; 34 µM in assay [7]. Also, in [9], the TGI is 18.3 µM.

As to `COC(=O)c1ccc2c(c1)C(=O)c1c-2n(C)c(=O)c2cc(OC)c(OC)cc12`, the GI50 in assay [10] was over 50 µM; in assay [1], over 50 µM; in assay [2], 21.2 µM; in assay [8], over 50 µM; in [3] it was over 50 µM; in assay [4], over 50 µM. The GI50 in assay [5], in assay [6] and in assay [7] was over 50 µM each time. Also, the TGI in assay [10], in assay [1], in [2], in [8], in [3] and in assay [4] was over 50 µM in each case. Further, the TGI in assay [5], in assay [6] and in assay [7] was over 50 µM each time.

In the case of `O=C1C(Nc2ccc(Br)cc2)=C(I)C(=O)c2ncccc21`, the GI50 is 1.69 µM in assay [10]; 1.59 µM in assay [1]; 0.806 µM in assay [2]; 0.912 µM in [8]; 1.42 µM in [3]; 1.14 µM in [5]. Besides, the GI50 in [6] was 0.601 µM; in assay [7], 0.803 µM; in assay [9], 1.24 µM. In addition, the TGI in [10] stood at 8.82 µM; in assay [1] it was 26 µM; in assay [2], 1.63 µM; in assay [8], 3.48 µM; in [3], 5.01 µM; in assay [5] it was 3.32 µM. For the same compound, the TGI in [6] worked out at 1.24 µM; in assay [7], 1.51 µM; in [9], 7 µM.

Turning to `CCC(CCC(C)C1CCC2C3CC=C4CC(OC5OC(CO)C(O)C(O)C5O)CCC4(C)C3CCC12C)C(C)C` (stereo not drawn), the TGI in assay [10], in assay [1], in assay [2], in [8], in assay [3] and in assay [4] was over 100 µM in each case. For the same compound, the TGI in assay [5], in assay [6] and in assay [7] was over 100 µM each time.

For the compound `Clc1nc(Cl)c2c3c(sc2n1)CCCC3`, the GI50 in [10] was over 100 µM; in assay [8], 3.61 µM; in [3], over 100 µM; in assay [4], 1.64 µM; in [5] it was 5.29 µM; in [6], 5.5 µM. Also, the GI50 in assay [9] is over 100 µM. Further, the TGI is over 100 µM in assay [10]; over 100 µM in assay [1]; over 100 µM in assay [8]; over 100 µM in [3]; over 26 µM in assay [4]; over 100 µM in [5]. For the same compound, the concentration for total growth inhibition (TGI) in assay [6] and in assay [9] was over 100 µM throughout.

For `NCCCn1c2c(c3ccc([N+](=O)[O-])cc3c1=O)C(=O)c1cc(-c3ccccc3)ccc1-2`, the GI50 in [10] was 0.694 µM; in assay [2], 1.29 µM; in [8] it was 0.235 µM; in assay [3], 0.34 µM; in assay [4], 0.22 µM; in assay [5], 1.84 µM. The GI50 in assay [6] was 0.399 µM; in [7], 1.31 µM; in assay [9], 0.579 µM. Moreover, the TGI in [10] was found to be 1.54 µM; in [2] it was 2.85 µM; in assay [8] it was 0.595 µM; in assay [3], 1.38 µM; in [4], 0.467 µM; in assay [5] it was 3.76 µM. Besides, the results for the TGI in assay [6], in assay [7] and in assay [9] were 1.62 µM, 2.62 µM and 1.87 µM, respectively.

Take `O=C(CC1(O)C(=O)Nc2ccccc21)c1ccc(F)cc1` (stereo not drawn): the TGI in assay [10], in assay [8], in assay [3], in assay [4], in assay [6] and in assay [7] was over 100 µM throughout. Besides, in assay [9], the concentration for total growth inhibition (TGI) is over 100 µM.
